In US9340510B2, “Tetrahydroisoquinoline derivatives, pharmaceutical compositions and uses thereof” (Boehringer Ingelheim International GmbH, priority 2014, dated 2016):

biological target: human ACC2 (Homo sapiens (Human), UniProt O00763); experiment: ACC2 assay: spectrophotometric 384 well assay (coupled lactate dehydrogenase/pyruvate kinase); type: biochemical; details: hACC2 construct lacking the 128 N-terminal amino acids, 25° C., 340 nm
Protocol: Spectrophotometric 384 Well Assay
Malonyl CoA formation by acetyl CoA carboxylases is stoichiometrically linked to the consumption of ATP. ACC2 activity is measured in a […] kinetic method measuring ADP generated during the ACC reaction using a coupled lactate dehydrogenase/pyruvate kinase reaction.
For biological testing, a human ACC2 construct which lacks the 128 amino acids at the N-terminus for increased solubility (nt 385-6966 in Genbank entry AJ575592) is cloned. The protein is then expressed in insect cells using a baculoviral expression system. Protein purification is performed by anion exchange.
All compounds are dissolved in dimethyl sulfoxide (DMSO) to a concentration of 10 mM.
Assay reactions are then carried out in 384-well plates, with hACC2 in an appropriate dilution and at final assay concentrations (f.c.) of 100 mM Tris (pH 7.5), 10 mM trisodium citrate, 25 mM KHCO3, 10 mM MgCl2, 0.5 mg/ml BSA, 3.75 mM reduced L-glutathione, 15 U/ml lactate dehydrogenase, 0.5 mM phosphoenolpyruvate, 15 U/ml pyruvate kinase, compounds at different concentrations at final DMSO concentrations of 1%.
The enzymatic reaction is then started by addition of a mixture of NADH, acetyl Coenzyme A (both […].) and ATP (500 uM f.c.). The decrease of the optical density (slope S) is then determined at 25° C. at a wavelength of 340 nm over 15 minutes in a spectrophotometric reader.
Each assay microtiter plate contains wells with vehicle instead of compound as controls for the non-inhibited enzyme (100% CTL; ‘HIGH’) and wells without acetyl-CoA as controls for non-specific NADH degradation (0% CTL; ‘LOW’).
The slope S is used for calculation of % CTL=(S(compound)−S(‘LOW’))/(S(‘HIGH’)−S(‘LOW’))*100. Compounds will give values between 100% CTL (no inhibition) and 0% CTL (complete inhibition).
For IC50 value determination, the sample slope in the presence of the test compound after subtraction of the low controls (S(compound)−S(‘LOW’)) are used.
An IC50 value is derived from the compound slopes at different dosages after subtraction of the low controls (S(compound)-S(‘LOW’)) by non-linear regression curve fitting (equation y=(A+((B−A)/(1+((C/x)^D))))).

Chain of human ACC2 (O00763 129-2458): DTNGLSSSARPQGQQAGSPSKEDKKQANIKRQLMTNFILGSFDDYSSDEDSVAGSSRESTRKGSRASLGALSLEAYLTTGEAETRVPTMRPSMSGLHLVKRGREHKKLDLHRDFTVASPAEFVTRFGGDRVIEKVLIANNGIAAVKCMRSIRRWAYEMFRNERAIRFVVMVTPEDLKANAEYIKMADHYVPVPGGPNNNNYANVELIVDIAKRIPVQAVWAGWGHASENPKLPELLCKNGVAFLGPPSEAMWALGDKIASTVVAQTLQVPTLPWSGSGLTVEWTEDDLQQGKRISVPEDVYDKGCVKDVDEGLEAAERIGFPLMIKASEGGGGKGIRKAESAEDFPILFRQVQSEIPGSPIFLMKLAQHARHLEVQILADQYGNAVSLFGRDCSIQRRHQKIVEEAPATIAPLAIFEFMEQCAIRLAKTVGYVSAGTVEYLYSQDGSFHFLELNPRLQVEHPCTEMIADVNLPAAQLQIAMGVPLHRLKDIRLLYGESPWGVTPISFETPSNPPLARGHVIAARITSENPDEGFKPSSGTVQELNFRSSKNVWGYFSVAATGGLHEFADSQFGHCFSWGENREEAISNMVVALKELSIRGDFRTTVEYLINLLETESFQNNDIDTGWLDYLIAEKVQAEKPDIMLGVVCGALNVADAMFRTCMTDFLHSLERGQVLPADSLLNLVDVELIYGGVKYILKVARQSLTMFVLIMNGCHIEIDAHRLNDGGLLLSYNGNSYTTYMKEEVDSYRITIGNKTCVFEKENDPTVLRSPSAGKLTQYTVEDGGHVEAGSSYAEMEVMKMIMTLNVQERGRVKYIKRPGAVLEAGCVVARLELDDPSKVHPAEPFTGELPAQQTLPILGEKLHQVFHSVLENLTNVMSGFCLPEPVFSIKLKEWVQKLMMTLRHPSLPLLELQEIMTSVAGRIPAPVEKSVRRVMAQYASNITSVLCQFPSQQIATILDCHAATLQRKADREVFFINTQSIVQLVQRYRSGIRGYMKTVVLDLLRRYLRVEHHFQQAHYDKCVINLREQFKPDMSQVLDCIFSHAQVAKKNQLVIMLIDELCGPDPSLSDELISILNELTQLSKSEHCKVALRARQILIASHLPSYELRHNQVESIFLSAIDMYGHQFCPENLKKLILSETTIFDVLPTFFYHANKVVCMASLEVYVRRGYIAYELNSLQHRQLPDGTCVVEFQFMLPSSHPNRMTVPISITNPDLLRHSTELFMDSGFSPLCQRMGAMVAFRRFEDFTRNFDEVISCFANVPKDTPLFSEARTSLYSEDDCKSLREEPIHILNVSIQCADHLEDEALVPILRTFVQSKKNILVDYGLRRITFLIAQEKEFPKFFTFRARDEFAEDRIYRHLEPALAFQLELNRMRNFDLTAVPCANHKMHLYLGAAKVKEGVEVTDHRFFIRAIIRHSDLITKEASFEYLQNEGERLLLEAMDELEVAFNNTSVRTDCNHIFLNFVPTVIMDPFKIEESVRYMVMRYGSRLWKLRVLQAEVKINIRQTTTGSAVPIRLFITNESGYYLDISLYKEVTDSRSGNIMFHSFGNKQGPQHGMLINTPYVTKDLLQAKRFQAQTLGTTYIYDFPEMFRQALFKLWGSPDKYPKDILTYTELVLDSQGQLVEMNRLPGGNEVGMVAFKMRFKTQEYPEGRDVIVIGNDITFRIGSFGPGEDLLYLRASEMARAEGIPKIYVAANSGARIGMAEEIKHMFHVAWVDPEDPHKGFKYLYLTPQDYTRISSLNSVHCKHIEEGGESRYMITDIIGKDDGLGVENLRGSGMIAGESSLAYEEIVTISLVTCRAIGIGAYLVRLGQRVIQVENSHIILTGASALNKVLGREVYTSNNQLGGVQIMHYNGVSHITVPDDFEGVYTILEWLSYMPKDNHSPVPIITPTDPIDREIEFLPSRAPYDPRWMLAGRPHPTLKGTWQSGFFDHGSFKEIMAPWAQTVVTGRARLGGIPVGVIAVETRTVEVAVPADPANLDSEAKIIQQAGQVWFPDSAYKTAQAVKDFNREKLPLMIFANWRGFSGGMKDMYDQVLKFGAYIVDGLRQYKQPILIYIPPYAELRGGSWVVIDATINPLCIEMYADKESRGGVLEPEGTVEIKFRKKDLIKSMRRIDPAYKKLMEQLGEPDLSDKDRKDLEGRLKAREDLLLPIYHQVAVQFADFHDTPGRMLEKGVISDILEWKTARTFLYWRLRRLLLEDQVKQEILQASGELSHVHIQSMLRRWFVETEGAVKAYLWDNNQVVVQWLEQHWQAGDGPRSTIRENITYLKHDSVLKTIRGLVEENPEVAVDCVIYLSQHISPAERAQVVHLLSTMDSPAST

SMILES	IC50 [µM]
CC(=O)NC(C)c1ccc(CN2CCc3cc(C(F)(F)F)ccc3C2)cc1 (centres unmarked) [Example 1.001, N-{1-[4-(6-Trifluoromethyl-3,4-dihydro-1H-isoquinolin-2-ylmethyl)-phenyl]-ethyl}-acetamide]	0.293
COC(=O)c1ccc2c(c1)CCN(Cc1ccc(C(C)NC(C)=O)cc1)C2 (centres unmarked) [Example 1.002]	0.524
CC(=O)NC(C)c1ccc(CN2CCc3cc(Br)ccc3C2)cc1 (centres unmarked) [Example 1.003]	0.265
CC(=O)NC(C)c1ccc(CN2CCc3c(Cl)cccc3C2)cc1 (centres unmarked) [Example 1.004]	0.206
CC(=O)NC(C)c1ccc(CN2CCc3c(cccc3OC(C)C)C2)cc1 (centres unmarked) [Example 1.005]	0.252
CC(=O)NC(C)c1ccc(CN2CCc3c(cccc3OCC3CC3)C2)cc1 (centres unmarked) [Example 1.006]	0.878
CC(=O)NC(C)c1ccc(CN2CCc3cc(OC(F)(F)F)ccc3C2)cc1 (centres unmarked) [Example 1.007]	0.291
CC(=O)NC(C)c1ccc(CN2CCc3c(cccc3OCC3CC3(F)F)C2)cc1 (centres unmarked) [Example 1.008]	0.492
CC(=O)NC(C)c1ccc(CN2CCc3cc(OCC(C)C)ccc3C2)cc1 (centres unmarked) [Example 1.009]	0.102
CC(=O)NC(C)c1ccc(CN2CCc3cc(OCC(F)F)ccc3C2)cc1 (centres unmarked) [Example 1.010]	0.614
CC(=O)NC(C)c1ccc(CN2CCc3cc(OCC4CCC4)ccc3C2)cc1 (centres unmarked) [Example 1.011]	0.067
CC(=O)NC(C)c1ccc(CN2CCc3cc(OCCC4CC4)ccc3C2)cc1 (centres unmarked) [Example 1.012]	0.052
CC(=O)NC(C)c1ccc(CN2CCc3cc(OCCCF)ccc3C2)cc1 (centres unmarked) [Example 1.013]	0.146
CC(=O)NC(C)c1ccc(CN2CCc3cc(OCCC(F)(F)F)ccc3C2)cc1 (centres unmarked) [Example 1.014]	0.095
CC(=O)NC(C)c1ccc(CN2CCc3cc(OCC4CC(F)(F)C4)ccc3C2)cc1 (centres unmarked) [Example 1.015]	0.047
CCOc1ccc2c(c1)CCN(Cc1ccc(C(C)NC(C)=O)cc1)C2 (centres unmarked) [Example 1.016]	0.273
CCCOc1ccc2c(c1)CCN(Cc1ccc(C(C)NC(C)=O)cc1)C2 (centres unmarked) [Example 1.017]	0.06
CCOc1cccc2c1CCN(Cc1ccc(C(C)NC(C)=O)cc1)C2 (centres unmarked) [Example 1.018]	0.407
CCCOc1cccc2c1CCN(Cc1ccc(C(C)NC(C)=O)cc1)C2 (centres unmarked) [Example 1.019]	0.326
CC(=O)NC(C)c1ccc(CN2CCc3cc(OC4CCC4)ccc3C2)cc1 (centres unmarked) [Example 1.020]	0.11
CC(=O)NC(C)c1ccc(CN2CCc3cc(OC(C)C)ccc3C2)cc1 (centres unmarked) [Example 1.021]	0.11
CC(=O)NC(C)c1ccc(CN2CCc3c(ccc(OCC4CC4)c3Br)C2)cc1 (centres unmarked) [Example 1.022]	0.126
COc1c(OCC2CC2)ccc2c1CCN(Cc1ccc(C(C)NC(C)=O)cc1)C2 (centres unmarked) [Example 1.023]	0.133

SMILES	IC50 [µM]
COc1ccc2c(c1Cl)CCN(Cc1ccc(C(C)NC(C)=O)cc1)C2 (centres unmarked) [Example 1.024]	0.415
CC(=O)NC(C)c1ccc(CN2CCc3c(ccc(OCC4CC4(F)F)c3Cl)C2)cc1 (centres unmarked) [Example 1.025]	0.049
CC(=O)NC(C)c1ccc(CN2CCc3c(ccc(OCC4CC4)c3Cl)C2)cc1 (centres unmarked) [Example 1.026]	0.043
CC(=O)NC(C)c1ccc(CN2CCc3c(cccc3C(F)F)C2)cc1 (centres unmarked) [Example 1.027]	0.699
CC(=O)NC(C)c1ccc(CN2CCc3cc(C(F)F)ccc3C2)cc1 (centres unmarked) [Example 1.028]	0.789
CC(=O)NC(C)c1ccc(CN2CCc3c(ccc4c3OCCO4)C2)cc1 (centres unmarked) [Example 1.029]	0.228
CC(=O)NC(C)c1ccc(CN2CCc3c(ccc(OCC(C)C)c3Cl)C2)cc1 (centres unmarked) [Example 1.030]	0.058
CC(=O)NC(C)c1ccc(CN2CCc3c(ccc(OCC4CC4(F)F)c3Br)C2)cc1 (centres unmarked) [Example 1.031]	0.076
CCOc1ccc2c(c1Cl)CCN(Cc1ccc(C(C)NC(C)=O)cc1)C2 (centres unmarked) [Example 1.032]	0.263
CC(=O)NC(C)c1ccc(CN2CCc3c(ccc(OCC4CCC4)c3Cl)C2)cc1 (centres unmarked) [Example 1.033]	0.044
CC(=O)NC(C)c1ccc(CN2CCc3c(ccc(OCCC(F)(F)F)c3Cl)C2)cc1 (centres unmarked) [Example 1.034]	0.054
CC(=O)NC(C)c1ccc(CN2CCc3c(ccc(OCCC4CC4)c3Cl)C2)cc1 (centres unmarked) [Example 1.035]	0.061
COc1c(OCc2ccccc2)ccc2c1CCN(Cc1ccc(C(C)NC(C)=O)cc1)C2 (centres unmarked) [Example 1.036]	0.101
CC(=O)NC(C)c1ccc(CN2CCc3c(ccc(OC4CCC4)c3Cl)C2)cc1 (centres unmarked) [Example 1.037]	0.08
CC(=O)NC(C)c1ccc(CN2CCc3c(ccc(OCC(F)F)c3Cl)C2)cc1 (centres unmarked) [Example 1.038]	0.218
CC(=O)NC(C)c1ccc(CN2CCc3c(ccc(OCCCF)c3Cl)C2)cc1 (centres unmarked) [Example 1.039]	0.057
CCCOc1ccc2c(c1)CCN(Cc1ccc([C@H](C)NC(=O)C3CC3)cc1)C2 [Example 1.041]	0.057
C[C@H](NC(=O)C1CC1)c1ccc(CN2CCc3cc(OCC4CC4)ccc3C2)cc1 [Example 1.042]	0.065
CCOc1ccc2c(c1)CCN(Cc1ccc([C@H](C)NC(=O)C3CC3)cc1)C2 [Example 1.043]	0.18
C[C@H](NC(=O)C1CC1)c1ccc(CN2CCc3cc(OC4CCC4)ccc3C2)cc1 [Example 1.044]	0.193
C[C@H](NC(=O)C1CC1)c1ccc(CN2CCc3cc(OCCC(F)(F)F)ccc3C2)cc1 [Example 1.045]	0.083
C[C@H](NC(=O)C1CC1)c1ccc(CN2CCc3cc(OCC(F)F)ccc3C2)cc1 [Example 1.046]	0.163
CC(C)Oc1ccc2c(c1)CCN(Cc1ccc([C@H](C)NC(=O)C3CC3)cc1)C2 [Example 1.047]	0.071

SMILES	IC50 [µM]
COc1c(OCC2CC2)ccc2c1CCN(Cc1ccc([C@H](C)NC(=O)C3CC3)cc1)C2 [Example 1.048]	0.139
C[C@H](NC(=O)C1CC1)c1ccc(CN2CCc3c(ccc(OCC4CC4(F)F)c3Cl)C2)cc1 (some centres unmarked) [Example 1.049]	0.063
C[C@H](NC(=O)C1CC1)c1ccc(CN2CCc3c(ccc(OCC4CC4)c3Cl)C2)cc1 [Example 1.050]	0.12
C[C@H](NC(=O)C1CC1)c1ccc(CN2CCc3cc(OC[C@@H]4CC4(F)F)ccc3C2)cc1 [Example 1.051]	0.031
C[C@H](NC(=O)C1CC1)c1ccc(CN2CCc3cc(OC[C@H]4CC4(F)F)ccc3C2)cc1 [Example 1.052]	0.024
COc1c(OCC2CC2(F)F)ccc2c1CCN(Cc1ccc([C@H](C)NC(=O)C3CC3)cc1)C2 (some centres unmarked) [Example 1.053]	0.142
COc1c(OCCC(F)(F)F)ccc2c1CCN(Cc1ccc([C@H](C)NC(=O)C3CC3)cc1)C2 [Example 1.054]	0.269
COc1c(OCC2CCC2)ccc2c1CCN(Cc1ccc([C@H](C)NC(=O)C3CC3)cc1)C2 [Example 1.055]	0.041
COc1c(OCC2CC(F)(F)C2)ccc2c1CCN(Cc1ccc([C@H](C)NC(=O)C3CC3)cc1)C2 [Example 1.056]	0.051
COc1c(OCC(C)C)ccc2c1CCN(Cc1ccc([C@H](C)NC(=O)C3CC3)cc1)C2 [Example 1.057]	0.102
COc1c(OCCC2CC2)ccc2c1CCN(Cc1ccc([C@H](C)NC(=O)C3CC3)cc1)C2 [Example 1.058]	0.137
C[C@H](NC(=O)C1CC1)c1ccc(CN2Cc3ccc(OCC4CC4)cc3C(F)C2)cc1 (some centres unmarked) [Example 1.059]	0.058
C[C@H](NC(=O)C1CC1)c1ccc(CN2Cc3ccc(OCC4CC4(F)F)cc3C(F)C2)cc1 (some centres unmarked) [Example 1.060]	0.029
C[C@H](NC(=O)C1CC1)c1ccc(CN2Cc3ccc(OCC4CC4(F)F)cc3C(O)C2)cc1 (some centres unmarked) [Example 1.061]	0.14
CC(=O)N[C@@H](C)c1ccc(CN2CCc3c(ccc(OCC4(C(F)(F)F)CC4)c3Cl)C2)cc1 [Example 1.062]	0.055
CC(=O)N[C@@H](C)c1ccc(CN2CCc3cc(OCCC(F)F)ccc3C2)cc1 [Example 1.063]	0.045
COc1c(OCC2CC2(F)F)ccc2c1CCN(Cc1ccc([C@H](C)NC(C)=O)cc1)C2 (some centres unmarked) [Example 1.064]	0.104
COc1c(OCCCF)ccc2c1CCN(Cc1ccc([C@H](C)NC(C)=O)cc1)C2 [Example 1.065]	0.211
COc1c(OCCC(F)(F)F)ccc2c1CCN(Cc1ccc([C@H](C)NC(C)=O)cc1)C2 [Example 1.066]	0.111
CCOc1ccc2c(c1OC)CCN(Cc1ccc([C@H](C)NC(C)=O)cc1)C2 [Example 1.067]	0.233
COc1c(OCC(C)C)ccc2c1CCN(Cc1ccc([C@H](C)NC(C)=O)cc1)C2 [Example 1.068]	0.07
COc1c(OC(C)C)ccc2c1CCN(Cc1ccc([C@H](C)NC(C)=O)cc1)C2 [Example 1.069]	0.418
